Data reported in ChEMBL document CHEMBL1157947, “Antineoplastic Agents. 554. The manitoba bacterium Streptomyces sp” (2006).
Converted amounts (≈) assume the structure as drawn.

Key:
Type in all cases: functional
KM-20L2 = assay: Growth inhibition of human KM20L2 cells
BXPC-3 = assay: Growth inhibition of human BXPC3 cells
NCI-H460 = assay: Growth inhibition of human NCI-H460 cells
DU-145 = assay: Growth inhibition of human DU145 cells
SF-268 = assay: Growth inhibition of human SF268 cells
MCF7 = assay: Growth inhibition of human MCF7 cells
P388 = assay: Growth inhibition of mouse P388 cells
Enterobacter cloacae = assay: Antibacterial activity against sEnterobacter cloacae by broth microdilution method
Candida albicans = assay: Antifungal activity against Candida albicans by broth microdilution method
Cryptococcus neoformans = assay: […] activity against Cryptococcus neoformans by broth microdilution method
Staphylococcus aureus = assay: Antibacterial activity against Staphylococcus aureus by broth microdilution method
Micrococcus luteus = assay: Antibacterial activity against Micrococcus luteus by broth microdilution method
Streptococcus pneumoniae = assay: Antibacterial activity against Streptococcus pneumoniae ATCC 6303 by broth microdilution method
[1] = test system: Stenotrophomonas maltophilia; assay: Antibacterial activity against Stenotrophomonas maltophilia by broth microdilution method
Enterococcus faecalis = assay: Antibacterial activity against sEnterococcus faecalis by broth microdilution method
Neisseria gonorrhoeae = assay: Antibacterial activity against Neisseria gonorrhoeae ATCC 49226 by broth microdilution method
Escherichia coli = assay: Antibacterial activity against sEscherichia coli by broth microdilution method

| Compound | GI50 (KM-20L2) [µg/mL] | GI50 (BXPC-3) [µg/mL] | GI50 (NCI-H460) [µg/mL] | GI50 (DU-145) [µg/mL] | GI50 (SF-268) [µg/mL] | GI50 (MCF7) [µg/mL] | GI50 (P388) [µg/mL] | MIC (Enterobacter cloacae) [µg/mL] | MIC (Candida albicans) [µg/mL] | MIC (Cryptococcus neoformans) [µg/mL] | MIC (Staphylococcus aureus) [µg/mL] | MIC (Micrococcus luteus) [µg/mL] | MIC (Streptococcus pneumoniae) [µg/mL] | MIC [1] [µg/mL] | MIC (Enterococcus faecalis) [µg/mL] | MIC (Neisseria gonorrhoeae) [µg/mL] | MIC (Escherichia coli) [µg/mL] |
| --- | --- | --- | --- | --- | --- | --- | --- | --- | --- | --- | --- | --- | --- | --- | --- | --- | --- |
| O=C(CO)c1c[nH]c2ccccc12 | 1.2 (≈ 6.85 µM) | 0.31 (≈ 1.77 µM) | 0.17 (≈ 0.97 µM) | 0.21 (≈ 1.2 µM) | 1.8 (≈ 10.3 µM) | 0.82 (≈ 4.68 µM) | 2.8 (≈ 16 µM) | – | – | – | – | – | – | – | – | – | – |
| Cc1cc(=O)n(C)c2c1C(=O)c1c(C)cc(=O)n(C)c1C2=O [DIAZAANTHRAQUINONE] | 0.32 (≈ 1.07 µM) | 0.54 (≈ 1.81 µM) | 1.2 (≈ 4.02 µM) | 1 (≈ 3.35 µM) | 1.3 (≈ 4.36 µM) | 0.49 (≈ 1.64 µM) | 1.4 (≈ 4.69 µM) | > 64 | > 64 | > 64 | > 64 | > 64 | 16 (≈ 53.6 µM) | > 64 | > 64 | 4 (≈ 13.4 µM) | > 64 |
